Drawing on ChEMBL document CHEMBL1144148, “DNA polymerase beta inhibitors from Baeckea gunniana” (J Nat Prod, 1999), this text covers IC50 and inhibition for 4 molecules.

The target in assay [1] is T1, DNA polymerase beta (Rattus norvegicus, UniProt P06766). The assay is described as follows: Inhibition of rat DNA polymerase beta in absence of BSA.
The target of assay [2] is DNA polymerase beta (Rattus norvegicus) (UniProt P06766). The assay is described as follows: Inhibition of rat DNA polymerase beta at 50 ug/mL.
Assay [3] has the same target. The assay is described as follows: Inhibition of rat DNA polymerase beta at 10 ug/mL.
In assay [4] the target is T1, DNA polymerase beta. Briefly: Inhibition of rat DNA polymerase beta in presence of BSA.

Each structure is given as a SMILES string.

The IC50 is the concentration needed to halve the response being measured. Usually inhibition stands for the change of the read-out against control, counted positive when it falls. The low end stands for a weak effect, the high end for a strong effect.

On to `C=C1[C@H]2C3=CC[C@@H]4[C@@]5(C)CC[C@H](O)C(C)(C)[C@@H]5CC[C@@]4(C)[C@]3(C)CC[C@@]2(C(=O)O)CC[C@H]1C`, for which the IC50 at DNA polymerase beta [1] stood at 3.2 µM; on DNA polymerase beta [4], 5.3 µM. The inhibition in assay [2] was found to be 80%; in assay [3], 65%.
The like results for `CC1(C)CC[C@]2(C(=O)O)CC[C@]3(C)C(=CC[C@@H]4[C@@]5(C)CC[C@H](O)C(C)(C)[C@@H]5CC[C@]43C)[C@@H]2C1` [OLEANOLIC_ACID] were, in that order, 3.7 µM, 7.5 µM, 90% and 42%.
The like results for `C=C1CC[C@]2(C(=O)O)CC[C@]3(C)[C@H](CC[C@@H]4[C@@]5(C)CC[C@H](O)C(C)(C)[C@@H]5CC[C@]43C)C2=C1C` were, in that order, 2.5 µM, 5.6 µM, 82% and 68%.
In the same order, the values of `C[C@H]1[C@H](C)CC[C@]2(C(=O)O)CC[C@]3(C)C(=CC[C@@H]4[C@@]5(C)CC[C@H](O)C(C)(C)[C@@H]5CC[C@]43C)[C@H]12` [URSOLIC ACID] are 4.8 µM, 8.5 µM, 90% and 55%.
